Test results as given in patent publication US10940150B2, “Thymine derivatives and quinazoline-dione derivatives for the inhibition of HSP27” (TECHNISCHE UNIVERSITAET DRESDEN, priority 2014, dated 2021).

Experiments:
HSP27 [1] = target: T1, HSP27 (Homo sapiens, UniProt P04792); test: SpeedScreen gel filtration binding test; conditions: PD SpinTraps G-25, detection by mass spectroscopy
From the text: For the experimental validation of low-molecular-weight compounds which act as potential HSP27 inhibitors according to the in silico prediction, a method based on gel filtration was employed. The method for detecting molecular bonds using gel filtration was described in 2004 as “SpeedScreen” [Muckenschnabel et al., 2004] and was adapted to meet the requirements of the invention. […] For the separation, PD SpinTraps G-25 from GE Healthcare were used. During the 2-minute centrifugation at 800×g (according to operating instructions), these columns allow molecules with a molecular weight of greater than or equal to 5000 g/mol to pass through, while smaller molecules are retained in the matrix. The target protein HSP27 has a molecular weight of 27000 g/mol and therefore passes through the matrix. […] Non-bound low-molecular-weight compounds are retained by the matrix. Molecules that have passed through the matrix can then be detected by mass spectroscopy. This enables “binders” to be differentiated from “non-binders”. For the experimental validation of low-molecular-weight compounds which act as potential HSP27 inhibitors according to the in silico prediction, a method based on gel filtration was employed. […] Molecules that have passed through the matrix can then be detected by mass spectroscopy. […]

HSP27 [2] = target: T1, HSP27; test: Spectrophotometric protein aggregation assay (citrate synthase, HSP27 chaperone function); assay type: biochemical; conditions: 750 μmol/L; 43° C., 500 nm, 1.44 μmol/L CS, 481 nmol/L HSP27
Method: FIG. 1: a spectrophotometric protein aggregation assay at 43° C., a wavelength of 500 nm and a concentrations of the proteins: 1.44 μmol/L citrate synthase (CS), 481 nmol/L HSP27 (HSP) in a 40 mmol/L HEPES buffer (pH 7.4) during treatment with 14 or 28 μmol/L 2-(3-trichlorovinylphenylamino)-1,9-dihydropurin-6-one (CS+HSP+test substance no. 2), with 750 μmol/L BVDU (CS+HSP+BVDU) and without (CS+HSP; reference);
To measure the efficacy of the purine derivatives according to the invention, robust experiments for the chaperone function of the HSP27 protein were performed:
A known client protein (=substrate on which HSP27 acts as a chaperone) of HSP27 is citrate synthase. Citrate synthase is denatured when the temperature increases to 43° C. This heat denaturation is prevented or delayed by the presence of HSP27 [Jakob U, 1993]. By adding the novel active ingredients, their efficacy can thus be measured through the inhibition of the HSP27 chaperone function.
To determine the activity (i.e. the effect on the aggregation behaviour of the citrate synthase (CS) after thermal incubation) of 2-(3-trichlorovinylphenylamino)-1,9-dihydropurin-6-one in comparison to BVDU, four different batches containing 1.44 μmol/L CS, 481 nmol/L HSP27 (HSP) in a 40 mmol/L HEPES buffer (pH 7.4) were prepared and BVDU (750 μmol/L) or various concentrations of 2-(3-trichlorovinylphenylamino)-1,9-dihydropurin-6-one (14 μmol/L; 28 μmol/L) were added. The samples were then incubated at 43° C. and the aggregation behaviour of the CS was […] in a spectrometer (PerkinElmer LS55, PerkinElmer Inc.) at a wavelength of 500 nm.
It can be seen from FIG. 1 that the protein citrate synthase (graph CS alone) is denatured by increasing the temperature to 43° C. and forms aggregates. The aggregation is measured in the spectrometer at 500 nm (light scattering by protein aggregates). The presence of HSP27 (HSP) counteracts the aggregation (cf. graph, CS+HSP). Since the addition of the test substances (BVDU and 2-(3-trichlorovinylphenylamino)-1,9-dihydropurin-6-one) inhibits the chaperone function of HSP27, the activity of the respective test substance can be determined by measuring the aggregation behaviour of the CS.

RPMI-8226 cells = test: Development of resistance to bortezomib in RPMI-8226 cells; assay type: cell-based
[3] = tested on: late-stage pancreatic cancer patients; conditions: cited from earlier work

T1 sequence (P04792 whole entry): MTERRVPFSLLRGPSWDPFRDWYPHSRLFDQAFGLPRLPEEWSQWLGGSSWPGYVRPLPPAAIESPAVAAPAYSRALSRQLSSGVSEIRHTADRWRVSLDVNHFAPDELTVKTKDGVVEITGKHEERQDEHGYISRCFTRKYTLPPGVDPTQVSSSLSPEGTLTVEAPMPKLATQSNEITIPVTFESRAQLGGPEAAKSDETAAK

Structure (SMILES)	SpeedScreen: passage through Sephadex G-25 matrix bound to HSP27 (binder / non-binder) (HSP27 [1])	effect on chaperone function of HSP27 (CS aggregation) (HSP27 [2])	final cell count (RPMI-8226 cells; bortezomib 0.075-0.275 ng/ml + 30 μmol/L BVDU (FIG. 8a), without HSP27 inhibitor 510,000 cells/ml)	final cell count (RPMI-8226 cells; bortezomib 0.1-0.3 ng/ml + 30 μM/L BVDU (FIG. 6a), without HSP27 inhibitor 950,000 cells/ml)	final cell count (RPMI-8226 cells; bortezomib 0.1-0.3 ng/ml + 30 μmol/L BVDU (FIG. 7a), without HSP27 inhibitor 950,000 cells/ml)	safety and efficacy in patients ([3]; administered dose of 500 mg/day, oral)	tolerability in low-weight patients ([3]; increased administered dose of 760 mg/day)
CC(=O)c1ccc2c(c1)N(CCCN(C)C)c1ccccc1S2 [Acepromazine]	tested positively	–	–	–	–	–	–
O=c1[nH]c(=O)n([C@H]2C[C@H](O)[C@@H](CO)O2)cc1/C=C/Br [BVDU, (E)-5-(2-bromovinyl)-2′-deoxyuridine]	–	partially cancels the chaperone function of HSP27	340,000 cells/ml	290,000 cells/ml	290,000 cells/ml	works safely and efficiently	proved disadvantageous for low-weight patients
